Laboratory results from patent US20100267561A1, “HERBICIDAL PYRIDAZINONE DERIVATIVES” (priority 2007, published 2010).

Tests used:
Format in all cases: in vivo
[1] = system: Italian ryegrass (Lolium multiflorum); test: Test B pre-/postemergence plant response; details: for Ryegrass, Italian plant response rating: 8 g ai/ha
In short: (§1)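 Preemergence and postemergence (plants 2-18 cm, 1- to 4-leaf stage) applications used test chemicals in a non-phytotoxic solvent with surfactant. Plants were held in a greenhouse 13 to 15 days, then rated visually against controls on a 0-100 scale (0 no effect, 100 complete control).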

[2] = system: bermudagrass (Cynodon dactylon); test: Test B pre-/postemergence plant response; details: for Bermudagrass plant response rating: 8 g ai/ha
In short: as §1

[3] = system: catchweed bedstraw (Galium aparine); test: Test B pre-/postemergence plant response; details: Preemergence
In short: as §1

[4] = system: giant foxtail (Setaria faberii); test: Test B pre-/postemergence plant response; details: for Foxtail, Giant plant response rating: 8 g ai/ha
In short: as §1

[5] = system: goosegrass (Eleusine indica); test: Test B pre-/postemergence plant response; details: for Goosegrass plant response rating: 8 g ai/ha
In short: as §1

[6] = system: johnsongrass (Sorghum halepense); test: Test B pre-/postemergence plant response; details: for Johnsongrass plant response rating: 8 g ai/ha
In short: as §1

kochia (Kochia scoparia) = test: Test B pre-/postemergence plant response; details: for Kochia plant response rating: 8 g ai/ha
In short: as §1

[7] = system: lambsquarters (Chenopodium album); test: Test B pre-/postemergence plant response; details: for Lambsquarters plant response rating: 8 g ai/ha
In short: as §1

[8] = system: large crabgrass (Digitaria sanguinalis); test: Test B pre-/postemergence plant response; details: for Crabgrass, Large plant response rating: 8 g ai/ha
In short: as §1

[9] = system: morningglory (Ipomoea coccinea); test: Test B pre-/postemergence plant response; details: for Morningglory plant response rating: 8 g ai/ha
In short: as §1

[10] = system: pigweed (Amaranthus retroflexus); test: Test B pre-/postemergence plant response; details: for Pigweed plant response rating: 8 g ai/ha
In short: as §1

soybean (Glycine max) = test: Test B pre-/postemergence plant response
In short: as §1

[11] = system: velvetleaf (Abutilon theophrasti); test: Test B pre-/postemergence plant response; details: for Velvetleaf plant response rating: 8 g ai/ha
In short: as §1

rice (Oryza sativa) = test: Test B flooded paddy test plant response
In short: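 2-leaf plants; pots flooded 3 cm above soil; compound added to paddy water; depth maintained. Greenhouse 13–15 d. Visual rating vs controls, 0 (no effect) to 100 (complete control); dash = no result.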

[12] = Postemergence, 16 g ai/ha, scale 0 to 100
[13] = Postemergence, 31 g ai/ha, scale 0 to 100, 0 no effect, 100 complete control
[14] = Postemergence, 62 g ai/ha, scale 0 to 100
[15] = Preemergence, 16 g ai/ha, scale 0 to 100 (0 no effect, 100 complete control)
[16] = Preemergence, 62 g ai/ha, scale 0 to 100
[17] = Preemergence, 31 g ai/ha, 0 to 100 scale, 0 no effect, 100 complete control

In the case of `CCc1cc(-c2ccc(Cl)cc2)nn1-c1c(O)cnn(C)c1=O` [Compound 21], the “Ryegrass, Italian plant response rating” value ([1]; postemergence, 0-100 scale) is reported as 98, the “Plant response rating, Ryegrass, Italian” value [1, 12] is reported as 100 and the “Plant response rating, Ryegrass, Italian” value [1, 13] is reported as 100. The “Plant response rating, Ryegrass, Italian” value [1, 14] was 100, the “Plant response rating, Ryegrass, Italian” value [1, 15] was 100 and the “Plant response rating, Ryegrass, Italian” value [1, 16] was 100. The “Ryegrass, Italian plant response rating” value ([1]; Preemergence, scale 0 to 100) was 90, the “Bermudagrass plant response rating” value ([2]; postemergence, 0-100 scale) was 40 and the “Plant response rating, Bermudagrass” value [2, 12] was 60. The “Plant response rating, Bermudagrass” value [2, 13] was 80, the “Plant response rating, Bermudagrass” value [2, 14] was 100 and the “Bermudagrass plant response rating” value ([2]; Preemergence, scale 0 to 100 (0 no effect, 100 complete control)) was 60. For the same compound, the “Plant response rating, Bermudagrass” value [2, 15] was 80, the “Plant response rating, Bermudagrass” value [2, 17] was 85 and the “Plant response rating, Bermudagrass” value [2, 16] was 100. The “Plant response rating, Galium” value ([3]; 16 g ai/ha, scale 0 to 100 (0 no effect, 100 complete control)) was 0, the “Plant response rating, Galium” value ([3]; 31 g ai/ha, 0 to 100 scale, 0 no effect, 100 complete control) was 0 and the “Plant response rating, Galium” value ([3]; 62 g ai/ha, scale 0 to 100) was 90. The “Galium plant response rating” value ([3]; 8 g ai/ha, scale 0 to 100) was 0, the “Foxtail, Giant plant response rating” value ([4]; postemergence, 0-100 scale) was 98 and the “Plant response rating, Foxtail, Giant” value [4, 12] was 100. For the same compound, the “Plant response rating, Foxtail, Giant” value [4, 13] was 100, the “Plant response rating, Foxtail, Giant” value [4, 14] was 100 and the “Plant response rating, Foxtail, Giant” value [4, 15] was 100. The “Plant response rating, Foxtail, Giant” value [4, 17] was 100, the “Plant response rating, Foxtail, Giant” value [4, 16] was 100 and the “Foxtail, Giant plant response rating” value ([4]; Preemergence, scale 0 to 100) was 85. The “Goosegrass plant response rating” value ([5]; postemergence, 0-100 scale) was 65, the “Plant response rating, Goosegrass” value [5, 12] was 80 and the “Plant response rating, Goosegrass” value [5, 13] was 95. The “Plant response rating, Goosegrass” value [5, 14] was 100, the “Plant response rating, Goosegrass” value [5, 15] was 80 and the “Plant response rating, Goosegrass” value [5, 17] was 95. For the same compound, the “Plant response rating, Goosegrass” value [5, 16] was 100, the “Goosegrass plant response rating” value ([5]; Preemergence, scale 0 to 100) was 10 and the “Johnsongrass plant response rating” value ([6]; postemergence, 0-100 scale) was 60. The “Plant response rating, Johnsongrass” value [6, 12] was 90, the “Plant response rating, Johnsongrass” value [6, 13] was 90 and the “Plant response rating, Johnsongrass” value [6, 14] was 100. For the same compound, the “Plant response rating, Johnsongrass” value [6, 15] was 85, the “Plant response rating, Johnsongrass” value [6, 17] was 90 and the “Plant response rating, Johnsongrass” value [6, 16] was 100. The “Johnsongrass plant response rating” value ([6]; Preemergence, scale 0 to 100) was 0, the “Kochia plant response rating” value (kochia (Kochia scoparia); postemergence, 0-100 scale) was 0 and the “Plant response rating, Kochia” value (kochia (Kochia scoparia); [12]) was 0. For the same compound, the “Plant response rating, Kochia” value (kochia (Kochia scoparia); [13]) was 0, the “Plant response rating, Kochia” value (kochia (Kochia scoparia); [14]) was 0 and the “Plant response rating, Kochia” value (kochia (Kochia scoparia); [15]) was 0. The “Plant response rating, Kochia” value (kochia (Kochia scoparia); [17]) was 0, the “Plant response rating, Kochia” value (kochia (Kochia scoparia); [16]) was 0 and the “Kochia plant response rating” value (kochia (Kochia scoparia); Preemergence, scale 0 to 100) was 0. The “Lambsquarters plant response rating” value ([7]; postemergence, 0-100 scale) was 0, the “Plant response rating, Lambsquarters” value [7, 12] was 0 and the “Plant response rating, Lambsquarters” value [7, 13] was 0. The “Plant response rating, Lambsquarters” value [7, 14] was 0, the “Plant response rating, Lambsquarters” value [7, 15] was 0 and the “Plant response rating, Lambsquarters” value [7, 17] was 100. The “Plant response rating, Lambsquarters” value [7, 16] was 100, the “Lambsquarters plant response rating” value ([7]; Preemergence, scale 0 to 100) was 0 and the “Crabgrass, Large plant response rating” value ([8]; postemergence, 0-100 scale) was 95. For the same compound, the “Plant response rating, Crabgrass, Large” value [8, 12] was 100, the “Plant response rating, Crabgrass, Large” value [8, 13] was 100 and the “Plant response rating, Crabgrass, Large” value [8, 14] was 100. The “Plant response rating, Crabgrass, Large” value [8, 15] was 80, the “Plant response rating, Crabgrass, Large” value [8, 17] was 80 and the “Plant response rating, Crabgrass, Large” value [8, 16] was 100. The “Crabgrass, Large plant response rating” value ([8]; Preemergence, scale 0 to 100) was 0, the “Morningglory plant response rating” value ([9]; postemergence, 0-100 scale) was 0 and the “Plant response rating, Morningglory” value [9, 12] was 0. For the same compound, the “Plant response rating, Morningglory” value [9, 13] was 0, the “Plant response rating, Morningglory” value [9, 14] was 0 and the “Plant response rating, Morningglory” value [9, 15] was 0. The “Plant response rating, Morningglory” value [9, 17] was 0, the “Plant response rating, Morningglory” value [9, 16] was 0 and the “Morningglory plant response rating” value ([9]; Preemergence, scale 0 to 100) was 0. The “Pigweed plant response rating” value ([10]; postemergence, 0-100 scale) was 0, the “Plant response rating, Pigweed” value [10, 12] was 0 and the “Plant response rating, Pigweed” value [10, 13] was 0. For the same compound, the “Plant response rating, Pigweed” value [10, 14] was 0, the “Plant response rating, Pigweed” value [10, 15] was 0 and the “Plant response rating, Pigweed” value [10, 17] was 0. For the same compound, the “Plant response rating, Pigweed” value [10, 16] was 0, the “Pigweed plant response rating” value ([10]; Preemergence, scale 0 to 100) was 0 and the “Soybean plant response rating” value (soybean (Glycine max); 8 g ai/ha, postemergence, 0-100 scale) was 0. The “Plant response rating, Soybean” value (soybean (Glycine max); [12]) was 0, the “Plant response rating, Soybean” value (soybean (Glycine max); [13]) was 0 and the “Plant response rating, Soybean” value (soybean (Glycine max); [14]) was 10. The “Plant response rating, Soybean” value (soybean (Glycine max); [17]) was 0, the “Velvetleaf plant response rating” value ([11]; postemergence, 0-100 scale) was 0 and the “Plant response rating, Velvetleaf” value [11, 12] was 0. For the same compound, the “Plant response rating, Velvetleaf” value [11, 13] was 0, the “Plant response rating, Velvetleaf” value [11, 14] was 0 and the “Plant response rating, Velvetleaf” value [11, 17] was 0. The “Plant response rating, Velvetleaf” value [11, 16] was 0, the “Velvetleaf plant response rating” value ([11]; Preemergence, scale 0 to 100) was 0 and the “Plant response rating, Rice” value (rice (Oryza sativa); Flood (flooded paddy test), 62 g ai/ha, scale 0 to 100, 0 no effect, 100 complete control) was 0. The “Plant response rating, Rice” value (rice (Oryza sativa); Flood (flooded paddy test), 125 g ai/ha, scale 0 to 100, 0 no effect, 100 complete control) was 20, the “Plant response rating, Rice” value (rice (Oryza sativa); Flood (flooded paddy test), 250 g ai/ha, scale 0 to 100, 0 no effect, 100 complete control) was 70 and the “Plant response rating, Rice” value (rice (Oryza sativa); Flood, 31 g ai/ha, scale 0 to 100) was 0.
